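Cells were grown in 96-well plates and exposed to each compound for 48 hours at five concentrations; endpoints were interpolated linearly between bracketing concentrations, or set to the highest concentration if not reached. Abbreviation: GI50, concentration required for 50% inhibition of growth. TGI is the concentration that stops growth completely.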
Experiments:
Assay in all cases: DTP human tumour cell line panel, 48 h
RXF 393 renal = test system: RXF 393 renal
HL-60(TB) leukemia = test system: HL-60(TB) leukemia
T-47D breast = test system: T-47D breast
TK-10 renal = test system: TK-10 renal
OVCAR-4 ovarian = test system: OVCAR-4 ovarian
SW-620 colon = test system: SW-620 colon
HCT-15 colon = test system: HCT-15 colon
SNB-19 CNS = test system: SNB-19 CNS
MDA-MB-468 breast = test system: MDA-MB-468 breast
CCRF-CEM leukemia = test system: CCRF-CEM leukemia
IGROV1 ovarian = test system: IGROV1 ovarian
K-562 leukemia = test system: K-562 leukemia
OVCAR-5 ovarian = test system: OVCAR-5 ovarian
ACHN renal = test system: ACHN renal
COLO 205 colon = test system: COLO 205 colon
MCF7 breast = test system: MCF7 breast
CAKI-1 renal = test system: CAKI-1 renal
OVCAR-8 ovarian = test system: OVCAR-8 ovarian
UACC-257 melanoma = test system: UACC-257 melanoma
NCI-H522 lung = test system: NCI-H522 lung
KM12 colon = test system: KM12 colon
NCI-H23 lung = test system: NCI-H23 lung
HS 578T breast = test system: HS 578T breast
HCC-2998 colon = test system: HCC-2998 colon
RPMI-8226 leukemia = test system: RPMI-8226 leukemia
A498 renal = test system: A498 renal
HOP-62 NSCLC = test system: HOP-62 NSCLC
SK-MEL-2 melanoma = test system: SK-MEL-2 melanoma
HOP-92 NSCLC = test system: HOP-92 NSCLC
786-0 renal = test system: 786-0 renal
HCT-116 colon = test system: HCT-116 colon
OVCAR-3 ovarian = test system: OVCAR-3 ovarian
HT29 colon = test system: HT29 colon
LOX IMVI melanoma = test system: LOX IMVI melanoma
A549 NSCLC = test system: A549 NSCLC
NCI-H460 lung = test system: NCI-H460 lung
DU-145 prostate = test system: DU-145 prostate
PC-3 prostate = test system: PC-3 prostate
M14 melanoma = test system: M14 melanoma
SN12C renal = test system: SN12C renal
SK-MEL-28 melanoma = test system: SK-MEL-28 melanoma
MOLT-4 leukemia = test system: MOLT-4 leukemia
NCI-H226 lung = test system: NCI-H226 lung
MDA-MB-435 = test system: MDA-MB-435
SK-OV-3 ovarian = test system: SK-OV-3 ovarian
SNB-75 CNS = test system: SNB-75 CNS
MALME-3M melanoma = test system: MALME-3M melanoma
BT-549 breast = test system: BT-549 breast
UO-31 renal = test system: UO-31 renal
SF-268 CNS = test system: SF-268 CNS
SF-295 CNS = test system: SF-295 CNS
SF-539 CNS = test system: SF-539 CNS
MDA-MB-231 breast = test system: MDA-MB-231 breast
U251 CNS = test system: U251 CNS
UACC-62 melanoma = test system: UACC-62 melanoma
SK-MEL-5 melanoma = test system: SK-MEL-5 melanoma
SR leukemia = test system: SR leukemia
EKVX NSCLC = test system: EKVX NSCLC

## O=C(c1ccc(Cl)cc1)C1[C@H](c2ccc(Br)cc2)[C@@H](c2ccccc2)NC12C(=O)Nc1ccccc12 (stereo partly specified)
RXF 393 renal
  GI50: 6.62 µM
  TGI: 14 µM
HL-60(TB) leukemia
  GI50: 8.74 µM
  TGI: 40.8 µM
T-47D breast
  GI50: 3.96 µM
  TGI: 16 µM
TK-10 renal
  GI50: 8.72 µM
  TGI: 20.1 µM
OVCAR-4 ovarian
  GI50: 8.37 µM
  TGI: 31.3 µM
SW-620 colon
  GI50: 7.4 µM
  TGI: 18.6 µM
HCT-15 colon
  GI50: 6.91 µM
  TGI: 18.7 µM
SNB-19 CNS
  GI50: 10.7 µM
  TGI: 42.2 µM
MDA-MB-468 breast
  GI50: 8.43 µM
  TGI: 19.5 µM
CCRF-CEM leukemia
  GI50: 4.54 µM
  TGI: 26.8 µM
IGROV1 ovarian
  GI50: 7.01 µM
  TGI: 16.2 µM
K-562 leukemia
  GI50: 2.94 µM
  TGI: 56 µM
OVCAR-5 ovarian
  GI50: 7.19 µM
  TGI: 15.1 µM
ACHN renal
  GI50: 5.64 µM
  TGI: 15.5 µM
COLO 205 colon
  GI50: 9.95 µM
  TGI: 19.6 µM
MCF7 breast
  GI50: 4.65 µM
  TGI: 29.3 µM
CAKI-1 renal
  GI50: 2.88 µM
  TGI: 17.4 µM
OVCAR-8 ovarian
  GI50: 8.26 µM
  TGI: 17.3 µM
UACC-257 melanoma
  GI50: 7.28 µM
  TGI: 16.3 µM
NCI-H522 lung
  GI50: 5.93 µM
  TGI: 15.5 µM
KM12 colon
  GI50: 6.13 µM
  TGI: 17.9 µM
NCI-H23 lung
  GI50: 8.53 µM
  TGI: 19.6 µM
HS 578T breast
  GI50: 8.79 µM
  TGI: 26.3 µM
HCC-2998 colon
  GI50: 7.79 µM
  TGI: 16.7 µM
RPMI-8226 leukemia
  GI50: 6.53 µM
  TGI: 33.9 µM
A498 renal
  GI50: 10.7 µM
  TGI: 22.2 µM
HOP-62 NSCLC
  GI50: 8.69 µM
  TGI: 18.3 µM
SK-MEL-2 melanoma
  GI50: 8.59 µM
  TGI: 16.9 µM
HOP-92 NSCLC
  GI50: 6.27 µM
  TGI: 15.1 µM
786-0 renal
  GI50: 8 µM
  TGI: 23.1 µM
HCT-116 colon
  GI50: 3.83 µM
  TGI: 13.5 µM
OVCAR-3 ovarian
  GI50: 8.74 µM
  TGI: 27.4 µM
HT29 colon
  GI50: 5.7 µM
  TGI: 15 µM
LOX IMVI melanoma
  GI50: 5.04 µM
  TGI: 14.3 µM
A549 NSCLC
  GI50: 5.03 µM
  TGI: 15.9 µM
NCI-H460 lung
  GI50: 5.88 µM
  TGI: 16 µM
DU-145 prostate
  GI50: 9.92 µM
  TGI: 28.5 µM
PC-3 prostate
  GI50: 2.86 µM
  TGI: 17.7 µM
M14 melanoma
  GI50: 6.97 µM
  TGI: 16.4 µM
SN12C renal
  GI50: 5.41 µM
  TGI: 12.3 µM
SK-MEL-28 melanoma
  GI50: 7.53 µM
  TGI: 15.1 µM
MOLT-4 leukemia
  GI50: 2.69 µM
  TGI: 48.7 µM
NCI-H226 lung
  GI50: 7.87 µM
  TGI: 15.9 µM
MDA-MB-435
  GI50: 7.84 µM
  TGI: 16.9 µM
SK-OV-3 ovarian
  GI50: 14.8 µM
  TGI: 54 µM
SNB-75 CNS
  GI50: 5.1 µM
  TGI: 26.1 µM
MALME-3M melanoma
  GI50: 8.65 µM
  TGI: 16.3 µM
BT-549 breast
  GI50: 8.86 µM
  TGI: 17 µM
UO-31 renal
  GI50: 3.37 µM
  TGI: 12 µM
SF-268 CNS
  GI50: 7.03 µM
  TGI: 28.9 µM
SF-295 CNS
  GI50: 6.33 µM
  TGI: 16.9 µM
SF-539 CNS
  GI50: 8.59 µM
  TGI: 18 µM
MDA-MB-231 breast
  GI50: 6.21 µM
  TGI: 13.5 µM
U251 CNS
  GI50: 7.49 µM
  TGI: 16 µM
UACC-62 melanoma
  GI50: 4.16 µM
  TGI: 12.1 µM
SK-MEL-5 melanoma
  GI50: 9.7 µM
  TGI: 17.7 µM
SR leukemia
  GI50: 4.32 µM
  TGI: 42.2 µM
EKVX NSCLC
  GI50: 9.02 µM
  TGI: 29 µM

From PubChem BioAssay (NCI)
